Results published in patent publication US7893069B2, “Substituted imidazo[2,1-b]thiazole compounds and uses thereof” (Gruenenthal GmbH, priority 2006, dated 2011).
pIC50, pKi: −log10 of the molar value.

Key:
[1] = system: rat; assay: Formalin test in rats (phase 2, chronic pain component); assay type: in vivo; conditions: p.o., 10 mg/kg, administered 30 min before formalin
Experimental: 2a. Formalin Test in Rats The formalin test (Dubuisson, D. and Dennis, S. G., 1977, Pain, 4, 161-174) represents a model for acute and chronic pain. A biphasic nociceptive reaction, which is recorded by observation of three clearly differentiable behavioural patterns, is induced by a single formalin injection into the dorsal side of a rear paw in freely mobile test animals. The reaction has two phases: Phase 1=Immediate reaction (duration up to 10 min; paw shaking, licking), Phase 2=Late reaction (after a rest phase; likewise, paw shaking, licking; duration up to 60 min). The 1st phase reflects a direct stimulation of the peripheral nocisensors with high spinal nociceptive input or glutamate release (acute pain phase); the 2nd phase reflects a spinal and peripheral hypersensitisation (chronic pain phase). In the investigations presented here, the chronic pain component (phase 2) was evaluated. Formalin with a volume of 50 μl and a concentration of 5% is administered subcutaneously into the dorsal side of the right rear paw of each animal. The substances to be tested are administered 30 min before the formalin injection orally (p.o), intravenously (i.v.) or intraperitoneally (i.p.). The specific changes in behavior such as lifting and shaking the paw, shifts in weight of the animal as well as biting and licking reactions are observed and registered in the period of observation from 21 to 27 min after formalin injection. The various forms of behavior are summarized in the so-called pain rate (PR), which, relative to the sub-intervals of 3 min, represents the calculation of an average nociception reaction. […] The group size is 10 animals (n=10). 2b. Formalin Test in Mice

[2] = biological target: T1, mGluR5 receptor (human) (Homo sapiens, UniProt P41594); assay: Functional Ca2+ influx assay in CHO-hmGluR5 cells (DHPG-stimulated, FLIPR); assay type: cell-based; conditions: 10 μM DHPG, Ki=IC50/(1+AGConc./EC50)
T1 construct: host or cells: CHO-hmGluR5 cells (purchased cell line; incubated overnight with doxycycline)
Experimental: The data is analyzed by means of a 1-factorial ANOVA (comparison of treatment groups versus vehicle group). The significance level is set at p<0.05. All the groups have a size of N=10. The test is also described in Hogg, S. (1996) “A review of the validity and variability of the elevated plus-maze as an animal model of anxiety,” Pharmacol. Biochem. Behav. 54, 21-30, and in Rodgers, R. J., Cole, J. C. (1994) “The elevated plus-maze: pharmacology, methodology and ethology,” in Cooper, S. J., Hendrie, C. A. (eds.) Ethology and Psychopharmacology. Wiley & Sons; pp. 9-44. 5. Description of the Functional Ca^2+ Influx Assay […]
After recording the fluorescence base line for 10 sec., 50 μl test substance solution (various test substance concentrations in HBSS buffer with 1% DMSO and 0.02% Tween 20, Sigma) is added and the fluorescence signal is measured for 6 min. 50 μl DHPG solution ((S)-3,5-dihydroxyphenylglycine, Tocris Biotrend Chemikalien GmbH, Cologne, Germany, final DHPG concentration: 10 μM) is subsequently added and the inflow of Ca^2+ is simultaneously measured for 60 sec. […] The data is analysed with Microsoft Excel and GraphPad Prism. The dose-effect curves are calculated with non-linear regression and IC50 values determined. Each data point is determined 3 times and IC50 values are averaged from a minimum of 2 independent measurements. […]

[3] = biological target: T2, mGluR5 receptor (pig) (Sus scrofa, UniProt I3LUI7); assay: [3H]-MPEP binding assay, pig brain homogenate; conditions: displacement of 5 nM [3H]-MPEP, 450 μg protein from pig brain homogenate, 60 min, room temperature; read-out: IC50 [3H]-MPEP bond mGluR5 receptor (pig)
T2 construct: 450 μg protein from brain homogenate is incubated with 5 nM; from tissue; host or cells: pig brain halves without medulla, cerebellum and pons; homogenate, differential centrifugation
Experimental: Substituted imidazo[2,1-b]thiazole compounds corresponding to the foregoing formula I are likewise particularly preferred, which, after 60 minutes of incubation in 450 μg protein from pig brain homogenate at a temperature between 20° C. and 25° C. in a concentration of less than 2500 nM, preferably less than 1000 nM, particularly preferably less than 700 nM, very particularly preferably less than 100 nM, even more preferably less than 70 nM, bring about a 50-percent displacement of [^3H]-2-methyl-6-(3-methoxyphenyl)-ethynylpyridine which is present in a concentration of 5 nM. The determination of the displacement of [^3H]-2-methyl-6-(3-methoxyphenyl)-ethynyl-pyridine is performed as described hereinafter in the section Pharmacological Methods, I. Method for determining the inhibition of [^3H]-MPEP-bonding in the mGluR5 receptor bonding assay.
1. Method for Determining the Affinity to the mGluR5 Receptor
Pig brain homogenate is produced by homogenization (Polytron PT 3000, Kinematica AG, 10,000 rpm for 90 seconds) of pig brain halves without medulla, cerebellum and pons in buffer pH 8.0 (30 mM Hepes, Sigma, order no. H3375+1 tablet complete to 100 ml, Roche Diagnostics, order no. 1836145) in ratio 1:20 (brain weight/volume) and differential centrifugation at 900×g and 40,000×g. In each case, 450 μg protein from brain homogenate is incubated with 5 nM ^3-[H]-MPEP (Tocris, order no. R1212) (MPEP=2-methyl-6-(3-methoxyphenyl)-ethynylpyridine) in 250 μl incubation batches in 96 well microtitration plates and the compounds to be tested (10 μM in the test) in buffer (as above) at room temperature for 60 min.
Thereafter, the batches are filtered with the help of a Brandel Cell Harvester (Brandel, TYP Robotic 9600) on unifilter plates with glass fibre filter mats (Perkin Elmer, order no. 6005177) and subsequently washed with buffer (as above) 3 times with in each case 250 μl per sample. The filter plates are subsequently dried for 60 min at 55° C. 30 μL Ultima Gold™ scintillator is subsequently added per well (Packard BioScience, order no. 6013159) and the samples are measured after 3 hours on the β-counter (Mikrobeta, Perkin Elmer). The unspecific bond is determined by addition of 10 μM MPEP (Tocris, order no. 1212).

T2 sequence (I3LUI7 19-1212): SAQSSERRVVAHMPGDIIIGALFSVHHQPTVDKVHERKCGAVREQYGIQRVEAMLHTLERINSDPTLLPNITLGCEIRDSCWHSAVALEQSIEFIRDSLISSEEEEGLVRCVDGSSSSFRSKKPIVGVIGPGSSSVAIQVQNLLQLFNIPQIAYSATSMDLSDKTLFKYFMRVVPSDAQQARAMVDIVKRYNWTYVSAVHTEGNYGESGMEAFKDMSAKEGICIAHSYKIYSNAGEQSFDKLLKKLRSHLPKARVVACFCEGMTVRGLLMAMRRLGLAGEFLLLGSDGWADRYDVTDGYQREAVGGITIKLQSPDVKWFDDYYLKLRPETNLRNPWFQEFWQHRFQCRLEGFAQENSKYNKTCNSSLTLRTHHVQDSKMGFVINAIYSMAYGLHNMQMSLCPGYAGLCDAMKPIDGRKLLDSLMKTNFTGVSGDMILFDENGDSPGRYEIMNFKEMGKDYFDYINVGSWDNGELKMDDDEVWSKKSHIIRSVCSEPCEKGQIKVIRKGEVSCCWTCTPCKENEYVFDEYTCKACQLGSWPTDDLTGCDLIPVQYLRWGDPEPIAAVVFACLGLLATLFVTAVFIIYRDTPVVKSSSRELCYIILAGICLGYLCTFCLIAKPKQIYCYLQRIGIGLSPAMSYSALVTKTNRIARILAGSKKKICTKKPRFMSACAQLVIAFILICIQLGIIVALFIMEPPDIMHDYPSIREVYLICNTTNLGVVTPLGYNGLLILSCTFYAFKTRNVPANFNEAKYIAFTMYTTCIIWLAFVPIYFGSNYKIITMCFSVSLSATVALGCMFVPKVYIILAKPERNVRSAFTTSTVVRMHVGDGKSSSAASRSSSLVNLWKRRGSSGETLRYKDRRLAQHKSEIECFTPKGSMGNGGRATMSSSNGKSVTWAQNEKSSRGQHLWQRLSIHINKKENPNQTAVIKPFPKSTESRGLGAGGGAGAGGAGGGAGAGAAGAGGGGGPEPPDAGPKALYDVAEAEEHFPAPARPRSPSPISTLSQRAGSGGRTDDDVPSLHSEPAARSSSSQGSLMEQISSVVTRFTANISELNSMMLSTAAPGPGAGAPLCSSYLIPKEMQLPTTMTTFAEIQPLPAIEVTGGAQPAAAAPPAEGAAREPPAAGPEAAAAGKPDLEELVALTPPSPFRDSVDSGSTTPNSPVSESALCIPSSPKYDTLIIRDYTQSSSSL
T1 sequence (P41594 21-1212): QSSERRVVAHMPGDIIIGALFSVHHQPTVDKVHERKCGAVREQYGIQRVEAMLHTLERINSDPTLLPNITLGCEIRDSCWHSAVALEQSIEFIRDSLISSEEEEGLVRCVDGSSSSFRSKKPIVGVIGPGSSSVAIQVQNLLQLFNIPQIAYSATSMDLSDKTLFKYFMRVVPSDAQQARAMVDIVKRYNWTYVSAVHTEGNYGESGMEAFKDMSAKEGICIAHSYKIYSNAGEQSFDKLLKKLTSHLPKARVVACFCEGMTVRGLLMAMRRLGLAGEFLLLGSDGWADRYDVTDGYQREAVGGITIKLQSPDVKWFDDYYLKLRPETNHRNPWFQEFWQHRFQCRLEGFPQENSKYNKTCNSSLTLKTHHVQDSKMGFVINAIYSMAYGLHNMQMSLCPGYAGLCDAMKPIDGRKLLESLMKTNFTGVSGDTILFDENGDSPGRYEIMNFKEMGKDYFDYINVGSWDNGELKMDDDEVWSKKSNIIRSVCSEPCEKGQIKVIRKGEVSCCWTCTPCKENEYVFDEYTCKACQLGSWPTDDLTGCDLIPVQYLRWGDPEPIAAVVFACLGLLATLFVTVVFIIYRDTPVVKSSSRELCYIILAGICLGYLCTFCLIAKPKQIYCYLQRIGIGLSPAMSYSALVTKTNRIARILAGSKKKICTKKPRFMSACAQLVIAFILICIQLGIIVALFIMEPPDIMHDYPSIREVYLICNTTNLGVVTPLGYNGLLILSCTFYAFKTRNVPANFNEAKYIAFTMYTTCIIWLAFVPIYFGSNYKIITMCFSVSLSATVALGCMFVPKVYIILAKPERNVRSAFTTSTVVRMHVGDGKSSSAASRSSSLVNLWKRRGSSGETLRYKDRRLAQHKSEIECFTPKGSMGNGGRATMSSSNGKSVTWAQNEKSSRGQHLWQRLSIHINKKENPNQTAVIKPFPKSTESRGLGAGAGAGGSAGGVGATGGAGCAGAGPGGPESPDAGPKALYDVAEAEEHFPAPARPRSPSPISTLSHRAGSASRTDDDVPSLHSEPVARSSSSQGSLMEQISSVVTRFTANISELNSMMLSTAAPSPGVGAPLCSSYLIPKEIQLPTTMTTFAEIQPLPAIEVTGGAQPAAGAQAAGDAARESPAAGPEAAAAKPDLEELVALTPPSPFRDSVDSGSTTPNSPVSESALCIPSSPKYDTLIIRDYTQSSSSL

pKi [2] | pIC50 [3] | Structure (SMILES) | Formalin test (rat) p.o. Reduction in the nociceptive behavior over controls at 10 mg/kg [1] [%]
9.51 | 8.26 | Cc1cn2c(NC(C)(C)C)c(-c3ccc(C#Cc4ccccn4)s3)nc2s1 [Example 4, N-tert-butyl-2-methyl-6-(5-(pyridine-2-ylethynyl)thiophene-2-yl)imidazo[2,1-b]thiazole-5-amine] | 62
9.59 | 8.52 | CC(C)(C)Nc1c(-c2ccc(C#Cc3ccncc3)s2)nc2sccn12 [Example 7, N-tert-butyl-6-(5-(pyridine-4-ylethinyl)thiophene-2-yl)imidazo[2,1-b]thiazole-5-amine] | –
